Reference: patent publication US20240254129A1, “HETEROCYCLIC COMPOUNDS AND USES THEREOF” (Kumquat Biosciences Inc., priority 2021, published 2024)
Read-outs that look alike come from different tables or passages of the source.

How the values were obtained:
[1] = molecular target: GST-tagged K-Ras mutant / His-tagged hSOS1 (Homo sapiens, UniProt P01116); experiment: HTRF assay, K-Ras mutant / SOS1 interaction; assay type: binding; conditions: read-out: IC50 against mutant Kras
Outline: (§1)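 Buffer ~5 mM HEPES pH 7.4, ~150 mM NaCl, ~1 mM DTT, 0.05% BSA, 0.0025% Igepal. Cpd in DMSO + Ras/donor mix + SOS1/acceptor mix; ≥10 min; HTRF 665/620 ratio → IC50.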

[2] = molecular target: T1, wildtype Kras / hSOS1 (Homo sapiens, UniProt P01116); experiment: HTRF assay, wildtype Kras / SOS1 interaction; assay type: binding; conditions: read-out: IC50 against wildtype Kras
T1 construct: made in house; host or cells: E. coli BL21 (DE3)
Outline: as §1

[3] = compound nos. 201-213, general methodology of example 5
[4] = compound nos. 102-196, general methodology of example 5

GST-tagged K-Ras mutant / His-tagged hSOS1, sequence (P01116 whole entry G12D, form open): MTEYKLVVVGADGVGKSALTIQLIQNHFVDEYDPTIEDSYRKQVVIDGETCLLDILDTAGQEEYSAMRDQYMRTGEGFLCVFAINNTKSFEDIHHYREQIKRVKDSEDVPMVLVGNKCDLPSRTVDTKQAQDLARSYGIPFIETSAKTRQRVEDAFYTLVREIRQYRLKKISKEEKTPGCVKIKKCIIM
T1 sequence (P01116 1-188 isoform P01116-2): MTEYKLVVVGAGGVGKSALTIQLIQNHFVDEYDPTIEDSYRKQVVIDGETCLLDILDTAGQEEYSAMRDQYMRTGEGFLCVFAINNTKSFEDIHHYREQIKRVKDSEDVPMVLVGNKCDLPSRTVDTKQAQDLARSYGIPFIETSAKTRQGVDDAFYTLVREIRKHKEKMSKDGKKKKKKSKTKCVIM

`Nc1nc2c(-c3c(Cl)cc4c(N5C[C@H]6CC[C@@H](C5)N6)nc(OC[C@@]56CCCN5C[C@H](F)C6)nc4c3F)ccc(F)c2s1` [Compound 206, 4-(4-((1R,5S)-3,8-diaza-bicyclo[3.2.1]octan-3-yl)-6-chloro-8-fluoro-2-(((2R,7aS)-2-fluorotetra-hydro-1H-pyrrolizin-7a(5H)-yl)methoxy)quinazolin-7-yl)-7-fluorobenzo[d]thiazol-2-amine] showed an IC50 [1, 3] of less than 1500 nM and an IC50 [2, 3] of less than 1500 nM.
`Nc1nc2c(-c3c(Cl)cc4c(N5CC6CCC(C5)NC6)nc(OC[C@@]56CCCN5C[C@H](F)C6)nc4c3F)ccc(F)c2s1` (stereo partly drawn) [Compound 511, 4-(4-(3,6-diazabicyclo-[3.2.2]nonan-3-yl)-6-chloro-8-fluoro-2-(((2R,7aS)-2-fluorotetrahydro-1H-pyrrol-izin-7a(5H)-yl)methoxy)-quinazolin-7-yl)-7-fluoro-benzo[d]thiazol-2-amine] was tested, and the IC50 ([1]; compound nos. 401-703) was less than 500 nM and the IC50 ([2]; compound nos. 401-703) was greater than 500 nM.
Molecule `CN1CCC[C@H]1COc1nc(N2CCNCC(F)(F)C2)c2cc(Cl)c(-c3ccc(F)c4sc(N)nc34)c(F)c2n1` [Compound 104, 4-(6-chloro-4-(6,6-difluoro-1,4-diazepan-1-yl)-8-fluoro-2-(((S)-1-methylpyrrolidin-2-yl)methoxy)quinazolin-7-yl)-7-fluorobenzo[d]thiazol-2-amine] has an IC50 [1, 4] of less than 500 nM and an IC50 [2, 4] of less than 500 nM.
For `CN1CCC[C@H]1COc1nc(N2CC3CCNC3C2)c2cc(Cl)c(-c3cccc4sc(N)nc34)c(F)c2n1` (stereo partly drawn) [Compound 124, 4-(6-chloro-8-fluoro-4-(hexahydropyrrolo[3,4-b]-pyrrol-5(1H)-yl)-2-(((S)-1-methylpyrrolidin-2-yl)meth-oxy)quinazolin-7-yl)benzo-[d]thiazol-2-amine], the IC50 [1, 4] was greater than 500 nM and the IC50 [2, 4] was greater than 500 nM.
`Nc1cc(-c2ccc3c(N4CC5CCC(C4)N5)nc(OCC45CCCN4CCC5)nc3c2F)c2ccccc2n1` [Compound 641, 4-(4-(3,8-diazabicyclo-[3.2.1]octan-3-yl)-8-fluoro-2-((tetrahydro-1H-pyrrol-izin-7a(5H)-yl)methoxy)-quinazolin-7-yl)quinolin-2-amine] was tested, and the IC50 ([1]; compound nos. 401-703) was greater than 500 nM and the IC50 ([2]; compound nos. 401-703) was greater than 500 nM.
In the case of `CN1CCC[C@H]1COc1nc(N2CCNCC(F)(F)C2)c2cc(Cl)c(-c3cccc4sc(NCC(F)(F)F)nc34)c(F)c2n1` [Compound 149, 4-(6-chloro-4-(6,6-difluoro-1,4-diazepan-1-yl)-8-fluoro-2-(((S)-1-methylpyrrolidin-2-yl)methoxy)quinazolin-7-yl)-N-(2,2,2-trifluoroethyl)-benzo[d]thiazol-2-amine], the IC50 [1, 4] is reported as greater than 500 nM and the IC50 [2, 4] is reported as greater than 500 nM.
`CN1CCC[C@H]1COc1nc(N2CCNCC(F)(F)C2)c2cc(Cl)c(-c3cccc4[nH]c(N)nc34)c(F)c2n1` [Compound 178, 4-(6-chloro-4-(6,6-difluoro-1,4-diazepan-1-yl)-8-fluoro-2-(((S)-1-methylpyrrolidin-2-yl)methoxy)quinazolin-7-yl)-1H-benzo[d]imidazol-2-amine] was tested, and the IC50 [1, 4] was greater than 500 nM and the IC50 [2, 4] was greater than 500 nM.
`CN1CCC[C@H]1COc1nc(N2CCCC(C(=O)O)CC2)c2cc(Cl)c(-c3cccc4sc(N)nc34)c(F)c2n1` (stereo partly drawn) [Compound 414, 1-(7-(2-aminobenzo[d]-thiazol-4-yl)-6-chloro-8-fluoro-2-(((S)-1-methyl-pyrrolidin-2-yl)methoxy)-quinazolin-4-yl)azepane-4-carboxylic acid] showed an IC50 ([1]; compound nos. 401-703) greater than 500 nM and an IC50 ([2]; compound nos. 401-703) of less than 500 nM.
For `CN1CCC[C@H]1COc1nc(N2CCCC(NC3CC3)CC2)c2cc(Cl)c(-c3cccc4sc(N)nc34)c(F)c2n1` (stereo partly drawn) [Compound 559, 4-(6-chloro-4-(4-(cyclo-propylamino)azepan-1-yl)-8-fluoro-2-(((S)-1-methyl-pyrrolidin-2-yl)methoxy)-quinazolin-7-yl)benzo[d]-thiazol-2-amine], the IC50 ([1]; compound nos. 401-703) was greater than 500 nM and the IC50 ([2]; compound nos. 401-703) was greater than 500 nM.
Molecule `N#Cc1c(N)sc2c(F)ccc(-c3c(Cl)cc4c(N5CCCC6(CNC6)C5)nc(OC[C@@]56CCCN5C[C@H](F)C6)nc4c3F)c12` [Compound 526, 2-amino-4-(6-chloro-8-fluoro-2-(((2R,7aS)-2-fluorotetrahydro-1H-pyrrol-izin-7a(5H)-yl)methoxy)-4-(2,6-diazaspiro[3.5]nonan-6-yl)quinazolin-7-yl)-7-fluorobenzo[b]thiophene-3-carbonitrile] has an IC50 ([1]; compound nos. 401-703) of less than 500 nM and an IC50 ([2]; compound nos. 401-703) greater than 500 nM.
In the case of `Nc1ccc(-c2ccc(O)cc2-c2c(Cl)cc3c(N4CC5CCC(C4)N5)nc(OCC45CCCN4CCC5)nc3c2F)cc1` [Compound 445, 2-(4-(3,8-diazabicyclo-[3.2.1]octan-3-yl)-6-chloro-8-fluoro-2-((tetrahydro-1H-pyrrolizin-7a(5H)-yl)meth-oxy)quinazolin-7-yl)-4′-amino-[1,1′-biphenyl]-4-ol], the IC50 ([1]; compound nos. 401-703) is reported as greater than 500 nM and the IC50 ([2]; compound nos. 401-703) is reported as less than 500 nM.
With `NC(=O)C1COCCN(c2nc(OC[C@@]34CCCN3C[C@H](F)C4)nc3c(F)c(-c4ccc(F)c5sc(N)nc45)c(Cl)cc23)C1` (stereo partly drawn) [Compound 507, 4-(7-(2-amino-7-fluoroben-zo[d]thiazol-4-yl)-6-chloro-8-fluoro-2-(((2R,7aS)-2-fluorotetrahydro-1H-pyrrol-izin-7a(5H)-yl)methoxy)-quinazolin-4-yl)-1,4-oxazepane-6-carboxamide] the IC50 ([1]; compound nos. 401-703) was less than 500 nM and the IC50 ([2]; compound nos. 401-703) was greater than 500 nM.
With `Cc1ccc2[nH]nc(N)c2c1-c1ccc2c(N3CC4CCC(C3)N4)nc(OC[C@@]34CCCN3C[C@H](F)C4)nc2c1F` [Compound 703, 4-(4-(3,8-diazabicyclo-[3.2.1]octan-3-yl)-8-fluoro-2-(((2R,7aS)-2-fluorotetra-hydro-1H-pyrrolizin-7a(5H)-yl)methoxy)quinazolin-7-yl)-5-methyl-1H-indazol-3-amine] the IC50 ([1]; compound nos. 401-703) was greater than 500 nM and the IC50 ([2]; compound nos. 401-703) was greater than 500 nM.
`N#Cc1c(N)sc2c(F)ccc(-c3c(Cl)cc4c(N5CC6CCC(C5)N6CC5CC5)nc(OC[C@@]56CCCN5C[C@H](F)C6)nc4c3F)c12` [Compound 500, 2-amino-4-(6-chloro-4-((1R,5S)-8-(cyclopropyl-methyl)-3,8-diazabicyclo-[3.2.1]octan-3-yl)-8-fluoro-2-(((2R,7aS)-2-fluorotetra-hydro-1H-pyrrolizin-7a(5H)-yl)methoxy)quin-azolin-7-yl)-7-fluorobenzo-[b]thiophene-3-carbonitrile] was tested, and the IC50 ([1]; compound nos. 401-703) was less than 500 nM and the IC50 ([2]; compound nos. 401-703) was less than 500 nM.
Work on `N#Cc1c(N)sc2c(F)ccc(-c3c(Cl)cc4c(N5CC6CCC(C5)N6)nc(OC[C@@]56CCCN5C[C@H](F)C6)nc4c3F)c12` [Compound 638, 4-(4-(3,8-diazabicyclo-[3.2.1]octan-3-yl)-6-chloro-8-fluoro-2-(((2R,7aS)-2-fluorotetrahydro-1H-pyrrol-izin-7a(5H)-yl)methoxy)-quinazolin-7-yl)-2-amino-7-fluorobenzo[b]thiophene-3-carbonitrile] yielded an IC50 ([1]; compound nos. 401-703) of less than 500 nM and an IC50 ([2]; compound nos. 401-703) greater than 500 nM.
`Nc1nc2c(-c3c(Cl)cc4c(N5CCOCC(F)(F)C5)nc(OCC56CCCN5CCC6)nc4c3F)cccc2s1` [Compound 114, 4-(6-chloro-4-(6,6-difluoro-1,4-oxazepan-4-yl)-8-fluoro-2-((tetrahydro-1H-pyrrolizin-7a(5H)-yl)methoxy)quin-azolin-7-yl)benzo[d]thiazol-2-amine] was tested, and the IC50 [1, 4] was less than 500 nM and the IC50 [2, 4] was less than 500 nM.
For `Fc1c(N2CCCCc3ccccc32)ccc2c(N3CCCCCC3)nc(OCC34CCCN3CCC4)nc12` [Compound 548, 1-(4-(azepan-1-yl)-8-fluoro-2-((tetrahydro-1H-pyrrol-izin-7a(5H)-yl)methoxy)-quinazolin-7-yl)-2,3,4,5-tetrahydro-1H-benzo[b]-azepine], the IC50 ([1]; compound nos. 401-703) was greater than 500 nM and the IC50 ([2]; compound nos. 401-703) was greater than 500 nM.
